In ChEMBL document CHEMBL2029272, “7-Azabicyclo[2.2.1]heptane as a scaffold for the development of selective sigma-2 (σ2) receptor ligands” (Bioorg Med Chem Lett, 2012):

Assays:
[1] = biological target: Histamine H4 receptor (Homo sapiens) (UniProt Q9H3N8); experiment: Inhibition of H4 receptor at 10 uM
[2] = biological target: Sigma non-opioid intracellular receptor 1 (Rattus norvegicus, UniProt Q9R0C9); experiment: Displacement of [3H](+)-pentazocine from sigma1 receptor in rat brain homogenate; assay type: tissue-based
[3] = biological target: Kappa-type opioid receptor (Homo sapiens) (UniProt P41145); experiment: Inhibition of kappa opioid receptor at 10 uM
[4] = biological target: Beta-1 adrenergic receptor (Homo sapiens) (UniProt P08588); experiment: Inhibition of beta1 adrenergic receptor at 10 uM
[5] = Displacement of [3H]DTG from sigma2 receptor in […]; assay type: cell-based; settings: pc-12
[6] = biological target: Muscarinic acetylcholine receptor M1 (Homo sapiens, UniProt P11229); experiment: Inhibition of M1 muscarinic receptor
[7] = biological target: Beta-2 adrenergic receptor (Homo sapiens) (UniProt P07550); experiment: Inhibition of beta2 adrenergic receptor at 10 uM
[8] = biological target: T1, 5-hydroxytryptamine receptor 2C (Homo sapiens) (UniProt P28335); experiment: Inhibition of 5-HT2C receptor at 10 uM
T1 sequence (whole entry): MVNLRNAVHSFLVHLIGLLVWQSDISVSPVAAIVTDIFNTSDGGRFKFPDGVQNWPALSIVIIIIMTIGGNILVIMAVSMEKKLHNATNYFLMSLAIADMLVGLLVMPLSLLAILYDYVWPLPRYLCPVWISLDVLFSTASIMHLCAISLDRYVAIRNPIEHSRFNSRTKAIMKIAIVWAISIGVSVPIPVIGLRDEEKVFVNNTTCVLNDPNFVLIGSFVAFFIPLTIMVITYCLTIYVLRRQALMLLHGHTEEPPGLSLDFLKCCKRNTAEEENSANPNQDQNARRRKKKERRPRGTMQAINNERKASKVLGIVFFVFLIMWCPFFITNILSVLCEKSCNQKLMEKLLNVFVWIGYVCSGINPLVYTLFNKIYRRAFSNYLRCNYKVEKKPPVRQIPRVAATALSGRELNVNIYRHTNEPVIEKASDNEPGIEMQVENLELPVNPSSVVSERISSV

[9] = biological target: T2, Alpha-1A adrenergic receptor (Homo sapiens) (UniProt P35348); experiment: Inhibition of alpha1A adrenergic receptor at 10 uM
T2 sequence (whole entry): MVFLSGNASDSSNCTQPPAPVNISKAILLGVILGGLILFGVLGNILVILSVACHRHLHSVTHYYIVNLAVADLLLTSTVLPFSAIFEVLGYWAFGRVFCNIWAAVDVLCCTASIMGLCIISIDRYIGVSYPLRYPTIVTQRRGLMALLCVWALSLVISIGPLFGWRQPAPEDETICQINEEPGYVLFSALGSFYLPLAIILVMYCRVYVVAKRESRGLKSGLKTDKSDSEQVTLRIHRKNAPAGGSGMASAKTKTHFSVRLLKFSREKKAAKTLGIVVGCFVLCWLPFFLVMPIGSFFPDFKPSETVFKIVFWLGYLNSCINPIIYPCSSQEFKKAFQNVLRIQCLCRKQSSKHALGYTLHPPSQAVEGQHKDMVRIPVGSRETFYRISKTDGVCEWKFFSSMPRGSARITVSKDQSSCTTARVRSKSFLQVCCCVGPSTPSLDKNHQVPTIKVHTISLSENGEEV

[10] = biological target: T3, Muscarinic acetylcholine receptor M5 (Homo sapiens, UniProt P08912); experiment: Inhibition of M5 muscarinic receptor
T3 sequence (P08912 whole entry): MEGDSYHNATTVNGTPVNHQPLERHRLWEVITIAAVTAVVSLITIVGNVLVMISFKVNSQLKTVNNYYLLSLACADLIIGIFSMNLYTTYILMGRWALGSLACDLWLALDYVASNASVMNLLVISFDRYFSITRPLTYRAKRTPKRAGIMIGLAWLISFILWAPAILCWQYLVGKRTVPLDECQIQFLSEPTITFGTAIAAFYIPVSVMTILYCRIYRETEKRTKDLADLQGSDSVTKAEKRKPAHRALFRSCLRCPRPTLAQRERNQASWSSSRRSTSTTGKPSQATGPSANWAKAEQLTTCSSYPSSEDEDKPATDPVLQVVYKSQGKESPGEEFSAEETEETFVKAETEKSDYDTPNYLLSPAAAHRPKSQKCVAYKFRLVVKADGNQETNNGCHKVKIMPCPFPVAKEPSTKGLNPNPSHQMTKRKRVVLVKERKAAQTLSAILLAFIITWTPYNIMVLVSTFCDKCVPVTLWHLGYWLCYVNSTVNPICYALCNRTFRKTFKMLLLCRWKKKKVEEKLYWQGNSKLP

[11] = biological target: T4, 5-hydroxytryptamine receptor 1A (Homo sapiens) (UniProt P08908); experiment: Inhibition of 5-HT1A receptor at 10 uM
T4 sequence (whole entry): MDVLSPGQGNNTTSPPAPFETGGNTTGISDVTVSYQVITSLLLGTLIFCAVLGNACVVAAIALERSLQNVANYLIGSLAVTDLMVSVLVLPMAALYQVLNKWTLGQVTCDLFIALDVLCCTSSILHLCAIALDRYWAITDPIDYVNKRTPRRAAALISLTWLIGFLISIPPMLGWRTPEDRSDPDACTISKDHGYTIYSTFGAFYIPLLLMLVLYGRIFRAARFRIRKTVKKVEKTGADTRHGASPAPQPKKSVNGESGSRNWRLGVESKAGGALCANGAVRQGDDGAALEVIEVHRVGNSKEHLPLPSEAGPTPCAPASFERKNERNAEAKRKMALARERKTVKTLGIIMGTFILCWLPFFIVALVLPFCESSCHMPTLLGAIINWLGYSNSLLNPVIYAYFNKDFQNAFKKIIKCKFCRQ

[12] = biological target: 5-hydroxytryptamine receptor 6 (Homo sapiens) (UniProt P50406); experiment: Inhibition of 5-HT6 receptor at 10 uM
[13] = biological target: 5-hydroxytryptamine receptor 5A (Homo sapiens) (UniProt P47898); experiment: Inhibition of 5-HT5A receptor at 10 uM
[14] = biological target: 5-hydroxytryptamine receptor 7 (Homo sapiens) (UniProt P34969); experiment: Inhibition of 5-HT7 receptor at 10 uM
D(2) dopamine receptor = D(2) dopamine receptor (Homo sapiens, UniProt P14416); experiment: Inhibition of D2 dopamine receptor at 10 uM
[15] = biological target: Muscarinic acetylcholine receptor M2 (Homo sapiens, UniProt P08172); experiment: Inhibition of M2 muscarinic receptor
[16] = Inhibition of GABA-A receptor at 10 uM
[17] = biological target: Delta-type opioid receptor (Homo sapiens) (UniProt P41143); experiment: Inhibition of delta opioid receptor at 10 uM
[18] = biological target: 5-hydroxytryptamine receptor 1B (Homo sapiens) (UniProt P28222); experiment: Inhibition of 5-HT1B receptor at 10 uM
[19] = biological target: 5-hydroxytryptamine receptor 1E (Homo sapiens) (UniProt P28566); experiment: Inhibition of 5-HT1E receptor at 10 uM
[20] = biological target: Sodium-dependent serotonin transporter (Homo sapiens, UniProt P31645); experiment: Inhibition of SERT at 10 uM
[21] = biological target: Mu-type opioid receptor (Homo sapiens) (UniProt P35372); experiment: Inhibition of mu opioid receptor at 10 uM
Mu-type opioid receptor (Homo sapiens), sequence (P35372 whole entry): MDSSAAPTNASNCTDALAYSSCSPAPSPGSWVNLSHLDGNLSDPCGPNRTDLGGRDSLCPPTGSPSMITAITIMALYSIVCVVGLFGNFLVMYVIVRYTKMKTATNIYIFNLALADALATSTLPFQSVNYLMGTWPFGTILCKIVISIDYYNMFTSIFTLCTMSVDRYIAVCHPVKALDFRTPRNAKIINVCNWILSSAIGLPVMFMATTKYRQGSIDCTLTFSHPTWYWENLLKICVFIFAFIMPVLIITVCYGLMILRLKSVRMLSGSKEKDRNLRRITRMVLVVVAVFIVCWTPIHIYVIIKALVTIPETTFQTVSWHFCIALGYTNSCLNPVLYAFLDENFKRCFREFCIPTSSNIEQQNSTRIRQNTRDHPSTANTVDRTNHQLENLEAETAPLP

Kappa-type opioid receptor (Homo sapiens), sequence (P41145 whole entry): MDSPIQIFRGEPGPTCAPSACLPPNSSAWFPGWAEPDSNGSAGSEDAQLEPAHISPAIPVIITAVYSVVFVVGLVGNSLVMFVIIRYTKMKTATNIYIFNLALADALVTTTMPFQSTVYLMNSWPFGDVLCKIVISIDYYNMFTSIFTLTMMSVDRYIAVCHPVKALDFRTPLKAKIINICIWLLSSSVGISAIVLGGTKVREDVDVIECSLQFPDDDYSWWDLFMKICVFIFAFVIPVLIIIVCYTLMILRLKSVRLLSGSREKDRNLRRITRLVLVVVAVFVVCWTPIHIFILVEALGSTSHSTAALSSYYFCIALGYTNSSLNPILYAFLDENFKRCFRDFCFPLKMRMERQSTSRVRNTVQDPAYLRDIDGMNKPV
Sodium-dependent serotonin transporter, sequence (P31645 whole entry, looked up): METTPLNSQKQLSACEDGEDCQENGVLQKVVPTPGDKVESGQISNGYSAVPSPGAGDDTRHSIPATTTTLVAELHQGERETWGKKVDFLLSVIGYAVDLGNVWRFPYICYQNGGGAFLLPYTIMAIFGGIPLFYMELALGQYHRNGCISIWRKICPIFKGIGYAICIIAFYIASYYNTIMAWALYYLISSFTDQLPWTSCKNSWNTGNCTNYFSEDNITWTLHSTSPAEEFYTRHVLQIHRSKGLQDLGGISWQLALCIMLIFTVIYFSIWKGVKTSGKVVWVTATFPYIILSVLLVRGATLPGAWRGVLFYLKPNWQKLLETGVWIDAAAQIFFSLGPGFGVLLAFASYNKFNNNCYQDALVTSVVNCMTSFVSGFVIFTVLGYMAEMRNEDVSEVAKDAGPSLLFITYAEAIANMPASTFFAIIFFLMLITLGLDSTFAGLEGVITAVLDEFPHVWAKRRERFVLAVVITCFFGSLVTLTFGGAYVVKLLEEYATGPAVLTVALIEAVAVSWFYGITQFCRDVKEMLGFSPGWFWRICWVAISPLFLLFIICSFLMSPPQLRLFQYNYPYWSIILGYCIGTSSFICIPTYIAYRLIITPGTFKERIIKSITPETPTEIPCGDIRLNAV
5-hydroxytryptamine receptor 5A (Homo sapiens), sequence (P47898 whole entry): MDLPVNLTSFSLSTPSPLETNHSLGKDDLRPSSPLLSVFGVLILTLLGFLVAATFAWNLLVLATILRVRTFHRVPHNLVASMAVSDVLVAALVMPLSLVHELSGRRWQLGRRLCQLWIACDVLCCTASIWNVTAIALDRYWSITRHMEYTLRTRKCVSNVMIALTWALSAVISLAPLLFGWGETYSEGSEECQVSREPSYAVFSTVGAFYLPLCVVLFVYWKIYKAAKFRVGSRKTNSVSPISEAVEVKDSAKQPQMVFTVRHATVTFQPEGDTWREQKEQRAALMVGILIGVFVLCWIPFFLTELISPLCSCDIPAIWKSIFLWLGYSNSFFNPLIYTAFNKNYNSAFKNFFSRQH
5-hydroxytryptamine receptor 7 (Homo sapiens), sequence (P34969 whole entry): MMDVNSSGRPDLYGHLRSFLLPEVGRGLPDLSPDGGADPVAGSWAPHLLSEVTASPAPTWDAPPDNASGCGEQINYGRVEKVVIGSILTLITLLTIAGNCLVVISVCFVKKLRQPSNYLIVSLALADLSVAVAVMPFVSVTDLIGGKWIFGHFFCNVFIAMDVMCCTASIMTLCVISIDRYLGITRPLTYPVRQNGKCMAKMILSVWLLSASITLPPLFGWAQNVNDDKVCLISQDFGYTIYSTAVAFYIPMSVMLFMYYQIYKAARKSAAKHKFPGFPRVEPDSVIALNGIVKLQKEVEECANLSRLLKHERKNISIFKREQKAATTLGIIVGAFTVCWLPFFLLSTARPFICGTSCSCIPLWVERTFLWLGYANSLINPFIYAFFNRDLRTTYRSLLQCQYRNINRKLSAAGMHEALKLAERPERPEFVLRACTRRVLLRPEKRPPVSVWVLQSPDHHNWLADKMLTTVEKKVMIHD
5-hydroxytryptamine receptor 1E (Homo sapiens), sequence (P28566 whole entry): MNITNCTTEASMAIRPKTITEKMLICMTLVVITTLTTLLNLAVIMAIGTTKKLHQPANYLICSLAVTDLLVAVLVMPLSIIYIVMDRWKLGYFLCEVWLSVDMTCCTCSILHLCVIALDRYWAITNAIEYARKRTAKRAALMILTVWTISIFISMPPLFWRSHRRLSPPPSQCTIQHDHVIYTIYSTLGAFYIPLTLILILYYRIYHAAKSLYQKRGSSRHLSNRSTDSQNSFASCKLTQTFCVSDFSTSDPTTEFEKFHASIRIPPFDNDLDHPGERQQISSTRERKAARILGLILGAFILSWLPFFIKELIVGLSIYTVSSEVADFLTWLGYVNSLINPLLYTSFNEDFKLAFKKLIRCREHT
5-hydroxytryptamine receptor 1B (Homo sapiens), sequence (P28222 whole entry): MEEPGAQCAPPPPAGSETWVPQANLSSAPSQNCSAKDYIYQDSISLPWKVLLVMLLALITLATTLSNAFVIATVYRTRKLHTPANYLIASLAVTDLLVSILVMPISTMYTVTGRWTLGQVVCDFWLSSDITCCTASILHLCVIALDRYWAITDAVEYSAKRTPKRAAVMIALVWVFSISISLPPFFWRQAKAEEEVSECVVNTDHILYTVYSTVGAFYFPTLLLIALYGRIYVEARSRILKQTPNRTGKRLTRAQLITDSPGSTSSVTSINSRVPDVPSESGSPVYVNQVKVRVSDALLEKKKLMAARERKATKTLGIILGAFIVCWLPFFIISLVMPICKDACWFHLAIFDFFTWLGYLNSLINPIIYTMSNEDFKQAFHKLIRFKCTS
5-hydroxytryptamine receptor 6 (Homo sapiens), sequence (P50406 whole entry): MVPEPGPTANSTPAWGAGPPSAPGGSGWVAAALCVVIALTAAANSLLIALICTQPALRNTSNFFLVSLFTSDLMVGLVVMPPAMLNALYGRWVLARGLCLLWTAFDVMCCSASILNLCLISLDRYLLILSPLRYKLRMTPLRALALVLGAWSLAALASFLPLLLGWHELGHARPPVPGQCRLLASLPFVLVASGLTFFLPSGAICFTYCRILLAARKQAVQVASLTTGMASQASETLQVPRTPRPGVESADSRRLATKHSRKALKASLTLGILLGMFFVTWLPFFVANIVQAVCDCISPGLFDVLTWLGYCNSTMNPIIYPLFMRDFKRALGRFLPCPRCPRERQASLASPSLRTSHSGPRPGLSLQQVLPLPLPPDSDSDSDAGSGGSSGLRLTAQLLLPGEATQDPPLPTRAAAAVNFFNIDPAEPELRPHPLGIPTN
Histamine H4 receptor (Homo sapiens), sequence (Q9H3N8 whole entry): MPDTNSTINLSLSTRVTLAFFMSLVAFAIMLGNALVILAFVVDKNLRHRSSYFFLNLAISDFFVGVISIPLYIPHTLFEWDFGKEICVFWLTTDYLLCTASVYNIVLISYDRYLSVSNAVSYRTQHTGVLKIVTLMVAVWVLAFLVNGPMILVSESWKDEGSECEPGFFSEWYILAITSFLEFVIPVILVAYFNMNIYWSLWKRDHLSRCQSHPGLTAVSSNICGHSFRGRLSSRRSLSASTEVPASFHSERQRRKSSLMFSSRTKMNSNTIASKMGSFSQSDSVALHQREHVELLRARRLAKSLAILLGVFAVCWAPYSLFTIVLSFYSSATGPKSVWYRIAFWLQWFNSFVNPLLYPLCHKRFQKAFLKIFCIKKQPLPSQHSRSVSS
Delta-type opioid receptor (Homo sapiens), sequence (P41143 whole entry): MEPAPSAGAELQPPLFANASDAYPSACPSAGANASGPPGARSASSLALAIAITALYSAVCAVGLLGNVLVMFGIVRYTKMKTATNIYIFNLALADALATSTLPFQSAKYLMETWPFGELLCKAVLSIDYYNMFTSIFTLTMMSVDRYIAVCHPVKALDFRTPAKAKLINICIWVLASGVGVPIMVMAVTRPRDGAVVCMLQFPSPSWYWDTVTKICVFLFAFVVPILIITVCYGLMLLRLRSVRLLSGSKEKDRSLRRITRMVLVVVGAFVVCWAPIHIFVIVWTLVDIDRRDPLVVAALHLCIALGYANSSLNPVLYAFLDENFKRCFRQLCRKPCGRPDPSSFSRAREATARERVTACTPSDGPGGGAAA
Sigma non-opioid intracellular receptor 1, sequence (Q9R0C9 whole entry): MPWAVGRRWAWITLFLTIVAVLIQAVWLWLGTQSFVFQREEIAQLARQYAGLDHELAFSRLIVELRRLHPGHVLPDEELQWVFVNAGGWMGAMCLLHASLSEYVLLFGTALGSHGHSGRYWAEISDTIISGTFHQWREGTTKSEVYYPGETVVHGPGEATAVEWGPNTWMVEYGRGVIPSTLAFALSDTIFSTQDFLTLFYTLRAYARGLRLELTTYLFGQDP
Beta-2 adrenergic receptor (Homo sapiens), sequence (P07550 whole entry, looked up): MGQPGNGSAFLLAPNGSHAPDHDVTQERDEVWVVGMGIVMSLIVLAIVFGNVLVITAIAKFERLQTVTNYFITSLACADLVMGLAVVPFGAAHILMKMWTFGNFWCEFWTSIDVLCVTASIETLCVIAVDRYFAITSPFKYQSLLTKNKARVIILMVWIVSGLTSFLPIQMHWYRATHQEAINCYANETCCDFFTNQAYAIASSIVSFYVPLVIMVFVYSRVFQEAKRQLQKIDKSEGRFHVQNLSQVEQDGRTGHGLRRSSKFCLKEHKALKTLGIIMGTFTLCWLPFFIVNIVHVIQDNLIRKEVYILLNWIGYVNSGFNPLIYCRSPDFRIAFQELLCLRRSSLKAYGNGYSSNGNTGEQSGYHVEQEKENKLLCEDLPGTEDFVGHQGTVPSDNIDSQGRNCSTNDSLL

Row | Compound | inhibition [1] | Ki [2] | inhibition [3] | inhibition [4] | Ki [5] | inhibition [7] | inhibition [8] | inhibition [9] | Ki [10] | inhibition [11] | inhibition [12] | inhibition [13] | inhibition [14] | inhibition (D(2) dopamine receptor) | inhibition [16] | inhibition [17] | inhibition [18] | inhibition [19] | inhibition [20] | inhibition [21] | also measured
1 | C1CC2CCC1N2CC12C3C4C5C3C1C5C42 (centres undefined) | < 50% | 7 nM | < 50% | < 50% | 18 nM | < 50% | < 50% | < 50% | 802 nM | < 50% | < 50% | < 50% | < 50% | < 50% | < 50% | < 50% | < 50% | < 50% | < 50% | < 50% | Ki [6]: 7960 nM; Ki [15]: 696 nM
2 | C1CCC(CN2C3CCC2CC3)CC1 | < 50% | 22 nM | < 50% | < 50% | 18 nM | < 50% | < 50% | < 50% | 2670 nM | < 50% | < 50% | < 50% | < 50% | < 50% | < 50% | < 50% | < 50% | < 50% | < 50% | < 50% | Ki [6]: 5540 nM; Ki [15]: 4740 nM
3 | C1CCC(CN2CCCC2)CC1 | < 50% | 51 nM | < 50% | < 50% | 410 nM | < 50% | < 50% | < 50% | 2690 nM | < 50% | < 50% | < 50% | < 50% | < 50% | < 50% | < 50% | < 50% | < 50% | < 50% | < 50% | –
